Results on two compounds are retold here after patent US10766888B1, “HMOX1 inducers” (Mitobridge Inc., priority 2019, dated 2020).

As usually defined, the inhibition is the change of the read-out against control, counted positive when it falls. High values mean a response far below the control, low ones a response near the control.

In one series the target is hERG channel (Homo sapiens, UniProt Q12809). The series can be described thus: hERG manual patch clamp assay. The note with it: HEK 293 cells stably expressing hERG channel, pH 7.35, 10 μM compound. Type of series: cell-based. In outline:
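Whole-cell manual patch clamp on doxycycline-induced HEK293 cells stably expressing hERG. Tail current measured at −50 mV after a 4.8 s step to +30 mV from −90 mV holding; test compounds at 10 μM, 0.1% DMSO, vs vehicle baseline. Percent inhibition from peak tail current, […].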
(Block of hERG is tested as a sign of cardiac risk.)

Another series deals with HMOX1. The series can be described thus: HMOX1 mRNA expression in HepG2 cells (Nanostring). Type of series: cell-based, human. The note with it: 24 hours treatment, mRNA fold change vs DMSO. The protocol:
Example 147. HMOX1 Inducers of the Invention Strongly Increase In Vitro Expression of HMOX1
(§1) RNA Isolation and Quantification of Gene Expression
(§2) HepG2 cells were seeded at 250 k/well in 12-well tissue culture plates coated with collagen (collagen I, rat tail (thin plate coating); ENZO Life Sciences) for approximately 24 hours. The seeded cells were then treated with dose titration of the compound of Example 17 or dimethyl fumarate (DMF) (a Nrf2 activator; Fisher Scientific) via media change, with biological triplicates performed for each treatment. After approximately 24 hours of treatment, cells were visually inspected to confirm that no toxicity occurred with compound treatment. The treated cells were washed with PBS, aspirated, parafilmed and frozen at −80° C. prior to RNA isolation. RNA was isolated using Machery-Nagel isolation kit (NucleoSpin® RNA: catalog 740955.250) and then quantitated using ThermoFisher Nanodrop.
RNA was diluted for Nanostring gene expression analysis. […]
The relative mRNA levels of the HMOX1 gene in HepG2 cells treated with the compound of Example 17 or DMF were measured according to the methods described above. […]

The subject of a further series is FTH1. The series is described as follows: FTH1 mRNA expression in HepG2 cells (Nanostring). It is filed as cell-based, human. The note with it: 24 hours treatment. The protocol:
as §1, §2
RNA was diluted for Nanostring gene expression analysis. The diluted RNA at an input of 200 ng RNA was run on a Nanostring instrument, which was supported with nCounter® SPRINT Profiler System and nSolver4.0 Software, nCounter® SPRINT Cartridge, nCounter® SPRINT Reagent Pack, and nCounter® SPRINT Hybridization Buffer. Analysis was done manually using raw data obtained from nSolver4.0 Software. CLTC, POLR2A, RPL27 and TBP were used as reference genes for normalization. Data was graphed as fold change compared to DMSO treatment. […]

Series [1] concerns Primary human pulmonary artery endothelial cells (HPAEC). The series can be described thus: Glutathione (GSH) levels in primary human endothelial cells under hemin stress. Type of series: cell-based. The protocol: Example 149. Glutathione (GSH) Levels in Primary Human Endothelial Cells
Primary human pulmonary artery endothelial cells (HPAEC) (Lonza # CC-2530) cultured in endothelial cell growth medium-2 (EGM2 media, Lonza # CC-3162) were seeded in white 96-well plate (Corning® #3610) at 12.5 k cells per well and placed at 37° C. in 5% CO2. 18-24 hr post seeding, cells were treated with the compound of Example 17 via media change. 24 hr post treatment with the compound, cells were treated using a freshly prepared hemin stock (Sigma-Aldrich #51280 in 0.1N NaOH) alone or with the compound of Example 17. […] Media was aspirated off and GSH-Glo™ Glutathione Assay (Promega # V6911) was run following the manufacturer's protocol. White bottom plate seal (PerkinElmer #6005199) was used during read. Analysis was done using Softmax Pro.

Sequence of hERG channel (Q12809 whole entry): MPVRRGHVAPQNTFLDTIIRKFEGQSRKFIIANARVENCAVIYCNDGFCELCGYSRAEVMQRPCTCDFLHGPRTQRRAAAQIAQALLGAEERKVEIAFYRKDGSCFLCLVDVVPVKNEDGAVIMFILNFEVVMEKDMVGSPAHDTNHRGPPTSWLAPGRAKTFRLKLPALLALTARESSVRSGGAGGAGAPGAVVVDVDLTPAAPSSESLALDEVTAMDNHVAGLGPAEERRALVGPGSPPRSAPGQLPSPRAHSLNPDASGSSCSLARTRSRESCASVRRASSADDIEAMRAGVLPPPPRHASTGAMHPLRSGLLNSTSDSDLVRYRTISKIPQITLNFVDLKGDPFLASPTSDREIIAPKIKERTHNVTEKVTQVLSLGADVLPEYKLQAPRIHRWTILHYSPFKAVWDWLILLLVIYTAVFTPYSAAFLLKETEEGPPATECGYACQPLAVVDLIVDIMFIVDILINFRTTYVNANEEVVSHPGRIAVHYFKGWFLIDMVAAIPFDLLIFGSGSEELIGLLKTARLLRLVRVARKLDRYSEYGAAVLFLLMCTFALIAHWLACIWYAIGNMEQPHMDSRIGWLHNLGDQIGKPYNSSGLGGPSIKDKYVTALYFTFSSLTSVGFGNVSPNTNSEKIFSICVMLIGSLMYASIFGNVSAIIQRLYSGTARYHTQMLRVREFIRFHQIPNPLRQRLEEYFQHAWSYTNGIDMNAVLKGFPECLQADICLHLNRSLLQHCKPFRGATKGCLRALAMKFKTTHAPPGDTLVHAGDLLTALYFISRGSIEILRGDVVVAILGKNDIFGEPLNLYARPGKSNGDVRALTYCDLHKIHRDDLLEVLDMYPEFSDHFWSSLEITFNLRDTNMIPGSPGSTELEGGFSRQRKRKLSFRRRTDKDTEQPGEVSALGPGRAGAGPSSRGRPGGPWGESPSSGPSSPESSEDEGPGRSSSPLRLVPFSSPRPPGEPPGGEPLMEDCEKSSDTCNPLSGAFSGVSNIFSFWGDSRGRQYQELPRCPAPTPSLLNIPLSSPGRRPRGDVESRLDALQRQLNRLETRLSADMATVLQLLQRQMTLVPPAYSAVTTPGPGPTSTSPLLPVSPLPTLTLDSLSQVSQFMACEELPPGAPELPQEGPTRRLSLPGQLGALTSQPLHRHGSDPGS

In turn, `Cn1c(Nc2nc3ccccc3o2)nc2cc(C(=O)NCCOCCO)ccc21` [Example 17, 2-(benzo[d]oxazol-2-ylamino)-N-(2-(2-hydroxyethoxy)ethyl)-1-methyl-1H-benzo[d]imidazole-5-carboxamide] had an inhibition at 10 µM at hERG channel of 16%. For the same compound, the “HMOX1 expression compared with DMF (in words)” value in the series with HMOX1 is given as “much more strongly than DMF”. Also, the “FTH1 expression fold increase (in words)” value in the series on FTH1 is “comparable fold increases”. Also, the “GSH levels / protection from hemin mediated oxidative stress (in words)” value in series [1] (24 hr pre-incubation, 30 min hemin stress) is reported as “protects these cells from hemin mediated oxidative stress”. For the same compound, the “toxicity by visual inspection of cells” value in series [1] (after 30 min of hemin stress) is “no toxicity”.
Turning to `COCCNC(=O)c1ccc2c(c1)nc(Nc1nc3ccc(OCCOC)cc3o1)n2C` [Example 56, 2-((6-(2-methoxyethoxy)benzo[d]oxazol-2-yl)amino)-N-(2-methoxyethyl)-1-methyl-1H-benzo[d]imidazole-5-carboxamide], the inhibition at 10 µM at hERG channel came to 35%.
